{
  "source": "patent US20130251633A1",
  "about": "“SYSTEMS, METHODS, AND DEVICES FOR ULTRASONIC ASSESSMENT OF CANCER AND RESPONSE TO THERAPY” (The Trustees of Columbia University in the City of New York, priority 2010, published 2013)",
  "type_in_all_cases": "in vivo, NCR nude mice",
  "key": {"NGP tumors [1]": {"test_system": "NGP tumors", "test": "Ultrasound molecular imaging with RGD-microbubbles (relative targeted microbubble adhesion, αvβ3 integrin), NGP tumors", "conditions": "exponential decay model, days 0-5", "procedure": "To evaluate vascular response (blood volume, perfusion, and molecular expression), two human cancer cell lines (SK-NEP and NGP) were implanted in nude mice and allowed to develop for five weeks. High-frequency ultrasound imaging of the tumors was performed at 40 MHz using a Visualsonics Vevo 770 during bolus tail-vein injections of size-selected microbubble suspensions. […] The bolus was […] and the concentration was 5×10^8 microbubbles/mL. The change in intensity of the ultrasound signal was used to determine the relative blood volume. Targeted microbubbles bearing cyclic RGD-peptides (or cyclic RAD-peptides for the control microbubbles) were used to measure the level of active angiogenesis. […]\nThe identity of the neuroblastoma cell lines NGP and SK-NEP-1 were verified by STR profiling. […] The resulting xenografts were monitored for growth using bioluminescence. […] 40-μm sections were cut using a vibratome, and digital images subjected to computer-assisted quantitative analysis of tumor vessel architecture. […]\nFor molecular ultrasound imaging, a series of lower frequency pulses was applied to destroy microbubbles in the field of view 10 minutes after microbubble injection. […] The relative targeted microbubble adhesion (rtma) was measured as the difference in the linearized grayscale pixel intensities within the ROI for targeted RGD-microbubbles, minus that for RAD-microbubbles. […]"}, "NGP tumors [2]": {"test_system": "NGP tumors", "test": "CEUS perfusion imaging (relative microbubble perfusion), NGP tumors", "conditions": "for increase in mean rmp: BV-treated NGP tumors", "procedure": "(§1) The identity of the neuroblastoma cell lines NGP and SK-NEP-1 were verified by STR profiling. The cell lines were stably transfected with FUW-Luciferase plasmid and were selected and maintained in 1 mg/ml neomycin. 1×10^6 cells were injected intrarenally into 4-6 week old NCR female nude mice. The resulting xenografts were monitored for growth using bioluminescence. At a threshold corresponding to 1-2 g, tumors were randomized to control or treatment groups (cohort size 5-8 mice per modality and treatment groups). BV (0.5 mg) was administered immediately after imaging on days 0 and 3. Animals were killed by CO2 inhalation at indicated time points (at day 5 after serial imaging studies, and at days 0, 1, 3, and 5 for control and lectin perfusion analyses). At euthanasia, mice were injected with fluorescein-labeled Lycopersicon esculentum lectin (100 μg/100 μl PBS). Vasculature was fixed by infusing 1% paraformaldehyde. 40-μm sections were cut using a vibratome, and digital images subjected to computer-assisted quantitative analysis of tumor vessel architecture.\nSize-selected microbubbles described above were used for perfusion and molecular imaging. Lipid-coated, perfluorobutane-filled microbubbles were produced by mechanical agitation. For targeting, a maleimide group was included on the distal end of the polyethylene glycol group on the lipopolymer used to coat the microbubbles. Residual lipid was removed and 4.5-μm median diameter microbubbles were isolated by centrifugation. Targeted microbubbles were then conjugated to cysteine-tagged RGD (target) or RAD (control) peptides and washed again to remove residual peptide. RGD conjugation was confirmed by HPLC and MALDI-TOF. Ultrasound imaging was performed using a small-animal ultrasound scanner with a 30-MHz transducer.\nMice were anesthetized and placed on a physiological monitoring platform, and their tail veins were catheterized for injections using a 27-gauge, ½-inch butterfly catheter. The transducer was positioned at the tumor midsection, and 2-D ultrasound images were acquired using a field of view of 17×17 mm. A 50-μL bolus (2.5×10^7 microbubbles) followed by a 15-μL saline flush were injected while imaging at the maximum frame rate for respiratory gating (˜11 frames/second) and 100% power. Maximum intensity persistence (MIP) images were acquired using non-targeted RAD-microbubbles. Contrast enhancement was detected using background subtraction from reference videos acquired before the microbubble injection. […] Relative microbubble perfusion (rmp) was defined as the maximum signal enhancement and determined by regression of a monoexponential function to the time-intensity curve during microbubble uptake. […]"}, "NGP xenografts": {"test_system": "NGP xenografts", "test": "Tumor 2-D cross-sectional area by ultrasound, NGP xenografts", "conditions": "NGP tumors, BV vs. control, 5 days", "procedure": "as §1, with “BV (0.5 mg) was administered immediately after imaging on days 0 and 3.” left out"}, "NGP tumors [3]": {"test_system": "NGP tumors", "test": "Fluorescein-labeled lectin perfusion analysis of tumor vasculature, NGP tumors", "conditions": "BV-treated NGP tumors", "procedure": "as §1, with “At euthanasia, mice were injected with fluorescein-labeled Lycopersicon esculentum lectin (100 μg/100 μl PBS). Vasculature was fixed by infusing 1% paraformaldehyde.” left out\nQuantified changes in lectin perfusion studies of tumor vasculature were consistent with changes detected by CEUS. […]\nComputer-assisted image analysis was used to examine changes in specific vessel features. If vascular area is calculated from total pixels, large-diameter vessels contributed disproportionately to MVD as compared to fine capillaries. To more closely estimate numbers of vessels, total length can be calculated by skeletonizing images and then scoring these by computer. […]"}, "SK-NEP-1 xenografts": {"test_system": "SK-NEP-1 xenografts", "test": "Tumor 2-D cross-sectional area by ultrasound, SK-NEP-1 xenografts", "procedure": "To evaluate vascular response (blood volume, perfusion, and molecular expression), two human cancer cell lines (SK-NEP and NGP) were implanted in nude mice and allowed to develop for five weeks. High-frequency ultrasound imaging of the tumors was performed at 40 MHz using a Visualsonics Vevo 770 during bolus tail-vein injections of size-selected microbubble suspensions. […] The bolus was […] and the concentration was 5×10^8 microbubbles/mL. The change in intensity of the ultrasound signal was used to determine the relative blood volume. Targeted microbubbles bearing cyclic RGD-peptides (or cyclic RAD-peptides for the control microbubbles) were used to measure the level of active angiogenesis. The mice were imaged at 0, 1, 3, and 5 days. Immediately after the imaging sessions on days 0 and 3, 0.2 cc of BV (2.5 mg/mL) was administered to the mice. After day 5, the mice were euthanized, and their tumors excised for ex vivo analysis.\nThe identity of the neuroblastoma cell lines NGP and SK-NEP-1 were verified by STR profiling. […] The resulting xenografts were monitored for growth using bioluminescence. […] 40-μm sections were cut using a vibratome, and digital images subjected to computer-assisted quantitative analysis of tumor vessel architecture.\nXenografts formed in the kidney of NCR nude mice with the human Ewing family tumor cell line SK-NEP-1 are highly sensitive to VEGF blockade therapy, while human neuroblastoma NGP cell lines are much less responsive to VEGF blockade therapy. The intrarenally implanted xenograft tumors were monitored for growth and randomly assigned to biweekly injections of anti-VEGF antibody BV or vehicle. […] To confirm the characterization of responsiveness, 2-D tumor area was measured by ultrasonography, the results of which are shown in FIG. 11.\nThe tumor 2-D cross-sectional area was determined from the ultrasound images using Visualsonics software. Area measurements of the tumor were calculated from the ultrasound images using a ROI that encompassed the hypoechoic region of the kidney (tumor tissue). […]"}, "SK-NEP-1 tumors [4]": {"test_system": "SK-NEP-1 tumors", "test": "Ultrasound molecular imaging with RGD-microbubbles (relative targeted microbubble adhesion, αvβ3 integrin), SK-NEP-1 tumors", "procedure": "as §1, with “BV (0.5 mg) was administered immediately after imaging on days 0 and 3.” left out"}, "SK-NEP-1 tumors [5]": {"test_system": "SK-NEP-1 tumors", "test": "CEUS perfusion imaging (relative microbubble perfusion), SK-NEP-1 tumors", "conditions": "SK-NEP-1 cohorts, days 0 to 5, linear mixed-effects model", "procedure": "as §1, with “At euthanasia, mice were injected with fluorescein-labeled Lycopersicon esculentum lectin (100 μg/100 μl PBS). Vasculature was fixed by infusing 1% paraformaldehyde.” left out, “architecture. […]” for “architecture.”\nMice were anesthetized and placed on a physiological monitoring platform, and their tail veins were catheterized for injections using a 27-gauge, ½-inch butterfly catheter. […] Contrast enhancement was detected using background subtraction from reference videos acquired before the microbubble injection. […] Relative microbubble perfusion (rmp) was defined as the maximum signal enhancement and determined by regression of a monoexponential function to the time-intensity curve during microbubble uptake. […]"}, "SK-NEP-1 tumors [6]": {"test_system": "SK-NEP-1 tumors", "test": "Fluorescein-labeled lectin perfusion analysis of tumor vasculature, SK-NEP-1 tumors", "procedure": "as §1, with “BV (0.5 mg) was administered immediately after imaging on days 0 and 3.” left out\nAfter binarization of the images, microvessel density (MVD) was estimated by the total number of white pixels per field. The results shown in FIGS. 10A-10B are as the mean pixel count per image +SD.\nComputer-assisted image analysis was used to examine changes in specific vessel features. […] To more closely estimate numbers of vessels, total length can be calculated by skeletonizing images and then scoring these by computer. […] New vascular branches can form a dynamic and relatively VEGF-dependent element in angiogenic networks."}},
  "data": [
    {"substance": "bevacizumab [BV]", "values": [
      {"measurement": "difference in rtma decay rates, BV-treated vs control", "setting": "NGP tumors [1]", "value": "no difference was observed"},
      {"measurement": "increase in mean rmp", "setting": "NGP tumors [2]; by day 1", "value": "38±21", "unit": "%"},
      {"measurement": "increase in mean rmp", "setting": "NGP tumors [2]; by day 3", "value": "57±48", "unit": "%"},
      {"measurement": "increase in mean rmp", "setting": "NGP tumors [2]; by day 5", "value": "105±41", "unit": "%"},
      {"measurement": "slopes of the linear regression of rmp, BV-treated vs control", "setting": "NGP tumors [2]; NGP cohorts, days 0 to 5, linear mixed-effects model", "value": "no difference"},
      {"measurement": "tumor growth", "setting": "NGP xenografts", "value": "unaffected"},
      {"measurement": "microvessel density (MVD) compared to day 0 controls", "setting": "NGP tumors [3]", "value": "did not change"},
      {"measurement": "changes in tumor size", "setting": "SK-NEP-1 xenografts; SK-NEP tumor-bearing mice, 0.2 cc BV (2.5 mg/mL) on days 0 and 3", "value": "no significant changes"},
      {"measurement": "change in tumor 2-D cross-sectional area (ultrasound)", "setting": "SK-NEP-1 xenografts; SK-NEP-1 mice, BV 0.5 mg on days 0 and 3, over the 5 day period", "value": "−5", "unit": "%"},
      {"measurement": "tumor growth in comparison to control", "setting": "SK-NEP-1 xenografts; SK-NEP-1 xenografts, days 3 and 5", "value": "significantly arrested tumor growth"},
      {"measurement": "reduction of the difference in image intensity (before/after destruction pulse)", "setting": "SK-NEP-1 tumors [4]; BV-responsive tumors, RGD microbubbles, after 3 days following treatment", "value": "> 95", "unit": "%"},
      {"measurement": "decrease in mean rtma", "setting": "SK-NEP-1 tumors [4]; BV-treated SK-NEP-1, by day 5", "value": "99±5", "unit": "%"},
      {"measurement": "difference in rtma decay rates, BV-treated vs control", "setting": "SK-NEP-1 tumors [4]; SK-NEP-1, exponential decay model, days 0-5", "value": "statistically different"},
      {"measurement": "αvβ3 integrin binding of RGD-bearing microbubbles in the tumor region", "setting": "SK-NEP-1 tumors [4]; treated SK-NEP mice, three days following BV administration", "value": "significant drop"},
      {"measurement": "slopes of the linear regression of rmp, BV-treated vs control", "setting": "SK-NEP-1 tumors [5]", "value": "statistically different"},
      {"measurement": "decrease in microvessel density (MVD) compared to day 0 controls", "setting": "SK-NEP-1 tumors [6]; BV-treated SK-NEP-1 tumors, day 1", "value": 66, "unit": "%"},
      {"measurement": "total vessel length", "setting": "SK-NEP-1 tumors [6]; SK-NEP-1, days 1, 3, 5", "value": "significantly decreased"},
      {"measurement": "total vascular branch number", "setting": "SK-NEP-1 tumors [6]; SK-NEP-1, days 3 and 5", "value": "significantly decreased"}
    ]}
  ]
}
